Measurements: patent publication US7858635B2 (priority 2005, dated 2010)
Like-named read-outs stand apart in the source and are kept apart here.

Assays:
[1] = target: T1, M1 muscarinic receptor (Homo sapiens, UniProt P11229); test: Functional mobilization of intracellular calcium (FLIPR, Fluo-3), M1-CHO cells; assay type: cell-based; conditions: for Emax: 100% efficacy is the maximum response obtained with the Carbachol control, read-out: M1 Efficacy
T1 construct: expressed in transfected cells; host or cells: CHO cells (M1-CHO, under zeocin and G418 selection)
T1 sequence (P11229 1-460): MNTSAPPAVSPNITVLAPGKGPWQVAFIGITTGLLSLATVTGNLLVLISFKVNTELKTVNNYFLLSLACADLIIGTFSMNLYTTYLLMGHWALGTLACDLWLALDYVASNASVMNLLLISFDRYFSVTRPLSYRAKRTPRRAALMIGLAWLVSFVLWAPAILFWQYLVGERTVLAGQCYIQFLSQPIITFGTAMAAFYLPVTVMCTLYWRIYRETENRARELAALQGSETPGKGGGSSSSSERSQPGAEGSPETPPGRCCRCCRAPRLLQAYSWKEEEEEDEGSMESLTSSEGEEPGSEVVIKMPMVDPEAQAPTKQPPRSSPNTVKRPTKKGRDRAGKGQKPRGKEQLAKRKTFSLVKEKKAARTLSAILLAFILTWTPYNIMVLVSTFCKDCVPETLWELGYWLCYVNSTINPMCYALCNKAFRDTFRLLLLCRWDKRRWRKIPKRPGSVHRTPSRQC
Outline: (§1)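 Intracellular calcium was tracked by fluorescence (488/540 nm) over 60 sec after compound addition to dye-loaded CHO cells expressing the receptor. Inhibitory activity used a 15 min pre-incubation before carbachol at the subtype EC80.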

[2] = target: T2, M4 muscarinic receptor (Homo sapiens, UniProt P08173); test: Functional mobilization of intracellular calcium (FLIPR, Fluo-3), M4-CHO cells; assay type: cell-based; conditions: for Emax: 100% efficacy is the maximum response obtained with the Carbachol control, read-out: M4 Efficacy
T2 construct: expressed in transfected cells; host or cells: CHO cells (M4-CHO, under puromycin, zeocin and blasticidin selection)
T2 sequence (P08173 1-479): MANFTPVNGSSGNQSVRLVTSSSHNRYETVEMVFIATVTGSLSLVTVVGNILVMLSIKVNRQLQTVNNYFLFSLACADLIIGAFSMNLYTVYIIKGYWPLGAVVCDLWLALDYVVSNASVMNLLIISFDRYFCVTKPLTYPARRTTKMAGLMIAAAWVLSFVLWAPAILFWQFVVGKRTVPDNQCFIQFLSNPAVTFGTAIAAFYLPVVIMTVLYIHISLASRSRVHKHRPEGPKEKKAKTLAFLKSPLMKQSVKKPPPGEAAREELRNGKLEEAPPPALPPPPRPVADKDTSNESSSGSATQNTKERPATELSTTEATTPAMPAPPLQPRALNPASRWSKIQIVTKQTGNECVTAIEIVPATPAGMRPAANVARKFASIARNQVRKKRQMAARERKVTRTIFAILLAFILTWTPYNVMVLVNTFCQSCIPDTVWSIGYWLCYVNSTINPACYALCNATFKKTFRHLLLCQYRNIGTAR
Outline: as §1

[3] = compound nos. 1-454, M1-CHO cells, calcium mobilization
[4] = compound nos. 1-454, M4-CHO cells, calcium mobilization

SMILES	M1 Activity ([1]; compound nos. 1-454)	Emax ([1]; compound nos. 1-454)	M4 Activity ([2]; compound nos. 1-454)	Emax ([2]; compound nos. 1-454)	M1 Activity [1, 3]	M4 Activity [2, 4]	Emax ([1]; compound nos. 455-509)	M1 Activity ([1]; compounds 455-509)	Emax ([2]; compound nos. 455-509)	M4 Activity ([2]; compounds 455-509)
Fc1ccc2c(c1)C1(CCN(C3CC4CCC3C4)CC1)CN2 (stereo not drawn) [compound 416]	+ (activity was measured to be greater than or equal to 3.0 μM)	< 65%	+ (activity was measured to be greater than or equal to 4.0 μM)	< 55%	–	–	–	–	–	–
Fc1ccc2c(c1)C1(CCN(C3CCCCC3)CC1)CO2 [compound 152]	–	65 to 85%	–	> 70%	++ (activity was measured to be between 0.7 μM and 3.0 μM)	+ (activity was measured to be greater than or equal to 4.0 μM)	–	–	–	–
CN(C)C(=O)N1CC2(CCN(C3CCN(c4cnccn4)CC3)CC2)c2ccccc21 [compound 464]	–	–	–	–	–	–	> 100%	+++ (activity was measured to be less than or equal to 2.0 μM)	> 100%	++ (activity was measured to be between 2.0 μM and 5.0 μM)
O=C1CC2(CCN(C[C@@H]3C[C@H]4C=C[C@H]3C4)CC2)c2ccccc21 [compound 238]	–	< 65%	–	< 55%	+ (activity was measured to be greater than or equal to 3.0 μM)	+ (activity was measured to be greater than or equal to 4.0 μM)	–	–	–	–
O=C1Nc2ccccc2C12CCN(CC1CC3C=CC1C3)CC2 (stereo not drawn) [compound 7]	–	65 to 85%	–	> 70%	+++ (activity was measured to be less than or equal to 0.7 μM)	++ (activity was measured to be between 0.1 μM and 4.0 μM)	–	–	–	–
Clc1ccc2c(c1)C1(CCO2)CCN(C2CCOCC2)CC1 [compound 178]	–	> 85%	–	55 to 70%	++ (activity was measured to be between 0.7 μM and 3.0 μM)	+ (activity was measured to be greater than or equal to 4.0 μM)	–	–	–	–
CC(=O)NC1CC2(CCN(C3CC4CCC(C4)C3)CC2)c2ccccc21 (stereo not drawn) [compound 8]	–	< 65%	–	55 to 70%	++ (activity was measured to be between 0.7 μM and 3.0 μM)	++ (activity was measured to be between 0.1 μM and 4.0 μM)	–	–	–	–
O=C(OC1CCCC1)N1C2CCC1CC(N1CCC3(CC1)C(=O)Nc1ccccc13)C2 (stereo not drawn) [compound 271]	–	65 to 85%	–	< 55%	+++ (activity was measured to be less than or equal to 0.7 μM)	+++ (activity was measured to be less than or equal to 0.1 μM)	–	–	–	–
CCC(=O)CCN1CC2(CCN(C[C@@H]3C[C@H]4C=C[C@H]3C4)CC2)c2cc(F)ccc21 [compound 12]	–	< 65%	–	< 55%	+++ (activity was measured to be less than or equal to 0.7 μM)	++ (activity was measured to be between 0.1 μM and 4.0 μM)	–	–	–	–
Clc1ccc2c(c1)C1(CCO2)CCN(CC2CC3C=C[C@H]2C3)CC1 (stereo in doubt) [compound 64, 1′-((1R,2R,4R)-bicyclo[2.2.1]hept-5-en-2-ylmethyl)-6-chlorospiro[chroman-4,4′-piperidine]]	–	< 65%	–	< 55%	+++ (activity was measured to be less than or equal to 0.7 μM)	++ (activity was measured to be between 0.1 μM and 4.0 μM)	–	–	–	–
CCc1nsc(N2CCC(N3CCC4(CC3)C[C@H](N(CCOC)C(C)=O)c3ccccc34)CC2)n1 [compound 505]	–	–	–	–	–	–	> 100%	+++ (activity was measured to be less than or equal to 2.0 μM)	25 to 100%	++ (activity was measured to be between 2.0 μM and 5.0 μM)
COC(=O)N1CC2(CCN(C3CC4CCC(C3)N4C(=O)O[C@@H]3CCOC3)CC2)c2cc(F)ccc21 (stereo partly drawn) [compound 192]	–	65 to 85%	–	55 to 70%	+++ (activity was measured to be less than or equal to 0.7 μM)	+ (activity was measured to be greater than or equal to 4.0 μM)	–	–	–	–
CCOC(=O)N1CCC(N2CCC3(CC2)CN(C(C)=O)c2ccc(-c4ccc(S(C)(=O)=O)cc4)cc23)CC1 [compound 177]	–	65 to 85%	–	55 to 70%	+++ (activity was measured to be less than or equal to 0.7 μM)	++ (activity was measured to be between 0.1 μM and 4.0 μM)	–	–	–	–
COCCOC(=O)N1C2CCC1CC(N1CCC3(CC1)C(=O)Nc1ccccc13)C2 (stereo not drawn) [compound 71]	–	< 65%	–	< 55%	+++ (activity was measured to be less than or equal to 0.7 μM)	++ (activity was measured to be between 0.1 μM and 4.0 μM)	–	–	–	–
CCc1nsc(N2CCC(N3CCC4(CC3)CN(C(=O)N(C)C)c3ccccc34)CC2)n1 [compound 476]	–	–	–	–	–	–	> 100%	+++ (activity was measured to be less than or equal to 2.0 μM)	> 100%	+++ (activity was measured to be less than or equal to 2.0 μM)
CN(C)C(=O)N1C2CCC1CC(N1CCC3(CC1)COc1ccc(F)cc13)C2 (stereo not drawn) [compound 203]	–	65 to 85%	–	< 55%	+++ (activity was measured to be less than or equal to 0.7 μM)	++ (activity was measured to be between 0.1 μM and 4.0 μM)	–	–	–	–
CC(=O)N[C@@H]1CC2(CCN([C@H]3C[C@@H]4CC[C@H]3C4)CC2)c2ccccc21 [compound 171]	–	> 85%	–	55 to 70%	++ (activity was measured to be between 0.7 μM and 3.0 μM)	+ (activity was measured to be greater than or equal to 4.0 μM)	–	–	–	–
COCCOC(=O)N1C2CCC1CC(N1CCC3(CC1)CN(C(=O)N(C)C)c1ccc(F)cc13)C2 (stereo not drawn) [compound 119, 2-methoxyethyl 3-(1-(dimethylcarbamoyl)-5-fluorospiro[indoline-3,4′-piperidine]-1′-yl)-8-azabicyclo[3.2.1]octane-8-carboxylate]	–	< 65%	–	< 55%	+++ (activity was measured to be less than or equal to 0.7 μM)	+ (activity was measured to be greater than or equal to 4.0 μM)	–	–	–	–
CC(C)OC(=O)N1C2CCC1CC(N1CCC3(CC1)CN(C(=O)C1CC1)c1ccc(F)cc13)C2 (stereo not drawn) [compound 345]	–	< 65%	–	< 55%	+++ (activity was measured to be less than or equal to 0.7 μM)	++ (activity was measured to be between 0.1 μM and 4.0 μM)	–	–	–	–
Cc1cc(C(=O)N2CC3(CCN(C4CC5CCC(C4)N5C(=O)O[C@H]4CCOC4)CC3)c3cc(F)ccc32)nn1C (stereo partly drawn) [compound 233]	–	65 to 85%	–	> 70%	+++ (activity was measured to be less than or equal to 0.7 μM)	+++ (activity was measured to be less than or equal to 0.1 μM)	–	–	–	–
CCOC(=O)N1C2CCC1CC(N1CCC3(CC1)CNc1ccc(C)cc13)C2 (stereo not drawn) [compound 109]	–	65 to 85%	–	< 55%	+++ (activity was measured to be less than or equal to 0.7 μM)	++ (activity was measured to be between 0.1 μM and 4.0 μM)	–	–	–	–
